This test deals with T1, Penicillin acylase from Escherichia coli (Escherichia coli, UniProt P06875).
T1 construct: gene pac; prepared by a procedure described earlier
The test can be described thus: KM as competitive inhibition constant of NIPAB hydrolysis, […] nm. The test is classed as biochemical. To be noted: pH 7.5, 0.01 M phosphate, 0.1 M KCl, 25 C; competitive with NIPAB.

T1 sequence (P06875 27-235, looked up): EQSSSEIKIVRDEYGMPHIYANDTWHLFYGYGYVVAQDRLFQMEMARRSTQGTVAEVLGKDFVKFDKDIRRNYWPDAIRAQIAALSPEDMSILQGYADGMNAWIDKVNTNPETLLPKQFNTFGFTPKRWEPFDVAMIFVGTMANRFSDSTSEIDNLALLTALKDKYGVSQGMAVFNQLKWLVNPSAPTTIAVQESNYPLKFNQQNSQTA
T1 sequence (P06875 290-846, looked up): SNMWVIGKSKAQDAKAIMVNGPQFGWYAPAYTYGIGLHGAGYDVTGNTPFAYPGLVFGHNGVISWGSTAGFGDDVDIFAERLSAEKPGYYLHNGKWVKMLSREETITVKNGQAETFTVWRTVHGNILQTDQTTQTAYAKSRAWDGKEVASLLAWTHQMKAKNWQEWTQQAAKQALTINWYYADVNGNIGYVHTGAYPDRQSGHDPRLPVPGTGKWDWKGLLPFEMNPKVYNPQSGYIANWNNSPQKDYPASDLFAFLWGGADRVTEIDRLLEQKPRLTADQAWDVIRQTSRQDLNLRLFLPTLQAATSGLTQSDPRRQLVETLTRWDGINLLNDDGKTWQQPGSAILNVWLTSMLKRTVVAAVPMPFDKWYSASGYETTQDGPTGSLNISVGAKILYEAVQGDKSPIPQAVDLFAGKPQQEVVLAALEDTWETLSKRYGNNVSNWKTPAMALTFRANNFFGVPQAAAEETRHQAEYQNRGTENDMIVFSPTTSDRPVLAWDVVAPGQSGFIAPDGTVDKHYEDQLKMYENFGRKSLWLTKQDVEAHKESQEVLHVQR

On to `O=C(O)C[C@H](NC(=O)OCc1ccccc1)C(=O)O` [N-benzyloxycarbonyl derivative of aspartic acid], for which the KM result was “the least effective binding substrates for penicillin acylase from Escherichia coli are derivatives of aspartic acid”.
In the case of `C[C@H](NC(=O)OCc1ccccc1)C(=O)O` [N-benzyloxycarbonyl-L-Ala], the KM result is listed as “expressed as the catalytic constant value (%) with respect to the corresponding alanine derivatives”.
In the case of `O=C(O)C[C@H](NC(=O)Cc1ccccc1)C(=O)O` [N-phenylacetyl derivative of aspartic acid], the KM entry is given as “the least effective binding substrates for penicillin acylase from Escherichia coli are derivatives of aspartic acid”.

Source of the values: paper PMC10154775, “Specificity of Penicillin Acylases in Deprotection of N-Benzyloxycarbonyl Derivatives of Amino Acids” (Acta Naturae, 2023).
